Data: PubChem BioAssay AID2060904 (Molecular Pharmacology Branch, DTP, NCI, 2025)
“And” between values parts separate entries of the source, which are not always exact repeats. Equal values may be shown once.

System: 349418-098-R-PDC complex spheroid viability
Assay: Anticancer human tumor 349418-098-R-PDC patient-derived lung adenocarcinoma cell line growth inhibition [RAS]
Details: for viability, T/C: stronger effect = lower value
Source text: RAS pathway inhibitors in Combinations in Complex Spheroids
A high-throughput screen of multi-cell type tumor spheroids was designed to identify active combinations of RAS pathway inhibitors and targeted small molecules. Complex spheroids include a stromal component modeled by human endothelial cells (HUVEC) and fibroblasts modeled by human mesenchymal stem cells (MSCs). The concentration ranges selected for each drug and investigational agent were based upon clinically achievable concentrations if the clinical Cmax of the agent was known.
Compounds. The drugs and investigational agents: abemaciclib (NSC768073), cobimetinib (NSC768068), divarasib (GDC6063, NSC841802), docetaxel (NSC628503), GDC-1971 (RLY-1971, NSC841576), gemcitabine (NSC613327), inavolisib (NSC800729), ipatasertib (NSC767898), KB-0742 (NSC834161), MRTX-1133 (NSC836407), osimertinib (NSC779217), RMC-4630 (NSC839698), RMC-6236 (NSC851965), RMC-6291 (NSC852671), Ro-3306 (NSC812927), sapanisertib (NSC764658), SN-38 (NSC673596), staurosporine (NSC755774), SY5609 (NSC837396), and tovorafenib (DAY101, NSC766906), were obtained from the National Cancer Institute (NCI) Developmental Therapeutics Program Chemical Repository. The FDA-approved anticancer drug set is available from the NCI Developmental Therapeutics Program. […] The stock solutions were prepared in dimethyl sulfoxide (DMSO, Sigma-Aldrich, St. Louis, MO, cat. D2650) at 800-fold the tested concentration and stored at -70 degrees C prior to their use. All drugs and investigational agents were tested over a range starting from a high concentration at or near the clinical Cmax and decreasing in half-log increments. If the clinical Cmax for an agent had not been determined, the highest concentration tested was 10 microM.
Cell Culture. All cells were maintained in an incubator at 37 degrees C and 5% CO2 with 95% humidity. The PDC lines were cultured according to standard operating procedures established by the NCI PDMR. All PDCs were thawed and cultured in Matrigel-coated flasks prepared with a working solution of 1X Ham's F-12 nutrient mix, without supplementation (Invitrogen, Waltham, MA, cat. 11765054), 100 U/mL penicillin-streptomycin (Invitrogen, cat. 15140122), and 2.5% Matrigel (Corning Inc., Corning, NY, cat. 354248) for the first three passages. The 362531-283-R-J2-PDC and 782815-120-R-J1-PDC lines were cultured in 6C/Colon 1B media, which includes advanced DMEM/F-12 (Thermo Fisher Scientific, cat. 12634028), 10 mM HEPES (Thermo Fisher Scientific, cat. 15630080), 1X GlutaMAX supplement (Thermo Fisher Scientific, cat. 35050061), 0.1 mg/mL primocin (InvivoGen, San Diego, CA, cat. ant-pm-2), 10% defined fetal bovine serum, heat inactivated (HyClone Laboratories Inc., Logan, UT, cat. SH30070.03HI), 50% L-WRN conditioned media (ATCC, cat. CRL-3276), 1.25 mM N-Acetyl-L-cysteine (Sigma-Aldrich, cat. A9165), 10 mM nicotinamide (Sigma-Aldrich, cat. N0636), 1X B-27 supplement (Thermo Fisher Scientific, cat. 17504044), 1X N-2 supplement (Thermo Fisher Scientific, cat. 17502048), 50 ng/mL human EGF (Thermo Fisher Scientific, cat. PHG0311), and 10 microM Y-27632 dihydrochloride (Tocris Bioscience, cat. 1254). The K12877-001-R-J1-PDC line was cultured in 6I media, which includes all 6C/Colon 1B media plus 10 ng/mL human FGF-10 (PeproTech, cat. 100-26), 1 ng/mL human FGF-2 (PeproTech, cat. 100-18B), 1 µM prostaglandin E2 (Tocris Bioscience, cat. 2296), […] hydrocortisone (Sigma-Aldrich, cat. H4001), and […] bovine insulin (Sigma-Aldrich, cat. I6634). The K86415-001-R-J1-PDC line was cultured in 6D media, which includes all 6C/Colon 1B media components minus the L-WRN conditioned media. The 485176-168-R4-J1-PDC was cultured in PANC media, which includes all 6C/Colon 1B media plus 100 ng/mL human FGF-10 (PeproTech, cat. 100-26), 500 nM SB-431542 (Selleckchem, cat. S1067), and 10 nM gastrin (Tocris Bioscience, cat. 3006). […]

[1] = compound alone, run of 06/10/2024
[2] = compound alone, run of 05/20/2024
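Note: spheroids exposed to compound for seven days before viability readout.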

SMILES	viability, T/C (compound 0.0316 µM)	viability, T/C (compound 10 µM)	viability, T/C (compound 0.1 µM)	viability, T/C (compound 0.316 µM)	viability, T/C (compound 1 µM)	IC50 (curve of compound)	viability, T/C (compound 3.16 µM)	other results
C#Cc1c(F)ccc2cc(O)cc(-c3ncc4c(N5CC6CCC(C5)N6)nc(OCC56CCCN5CC(F)C6)nc4c3F)c12 (stereo unspecified)	87.2% [middle of 8 runs]	71.8% [middle of 8 runs]						IC50 [1]: > 10000 nM
C=CC(=O)N1CCN(c2nc(OCC3CCCN3C)nc3c(F)c(-c4nc(N)cc(C)c4C(F)(F)F)c(Cl)cc23)C(C)C1 (stereo unspecified)			102% [middle of 12 runs]	95.8% [middle of 12 runs]	85.1% [middle of 12 runs]	> 1000 nM		IC50 [1]: > 1000 nM
C=CC(=O)Nc1cc(Nc2nccc(-c3cn(C)c4ccccc34)n2)c(OC)cc1N(C)CCN(C)C				85.7% [middle of 4 runs]	71.4% [middle of 4 runs]	> 1000 nM		viability, T/C (compound 0.00316 µM): 104% [middle of 4 runs]
CC(=O)OC12COC1CC(O)C1(C)C(=O)C(O)C3=C(C)C(OC(=O)C(O)C(NC(=O)OC(C)(C)C)c4ccccc4)CC(O)(C(OC(=O)c4ccccc4)C21)C3(C)C (stereo unspecified)	14.5% [middle of 4 runs]	25.8% [middle of 4 runs]	14.6% [middle of 4 runs]	17.6% [middle of 4 runs]	15.2% [middle of 4 runs]	< 31.6 nM	24.6% [middle of 4 runs]	
CC(C)NCC(C(=O)N1CCN(c2ncnc3c2C(C)CC3O)CC1)c1ccc(Cl)cc1 (stereo unspecified)		12.6% [middle of 4 runs]	81.7% [middle of 4 runs]	62.2% [middle of 4 runs]	37.9% [middle of 4 runs]	476 nM [middle of 4 runs]	18% [middle of 4 runs]	
CC(C)n1nc(-c2ccc3oc(N)nc3c2)c2c(N)ncnc21	8.74% [middle of 4 runs]		7.93% [middle of 4 runs]			3.6 nM [middle of 4 runs]		viability, T/C (compound 0.00316 µM): 44.1% (2×) and 55.6% and 55.3%; viability, T/C (compound 0.01 µM): 17% [middle of 4 runs]
CC(Nc1ccc2c(c1)OCCn1cc(N3C(=O)OCC3C(F)F)nc1-2)C(N)=O (stereo unspecified)	75.9% [middle of 4 runs]	14.1% [middle of 4 runs]	49.6% [middle of 4 runs]	32% [middle of 4 runs]	21.9% [middle of 4 runs]			
CC1(C)CCC(Nc2ncc(C(F)(F)F)c(-c3c[nH]c4c(P(C)(C)=O)c(C#N)ccc34)n2)CN1 (stereo unspecified)						1.47 nM and < 0.949 nM and 1.51 nM		viability, T/C (compound 0.000949 µM): 65.3% [middle of 4 runs]; viability, T/C (compound 0.003 µM): 24.7% [middle of 4 runs]; viability, T/C (compound 0.00949 µM): 15.5% [middle of 4 runs]; viability, T/C (compound 0.03 µM): 9.86% [middle of 4 runs]; viability, T/C (compound 0.0949 µM): 8.72% [middle of 4 runs]; viability, T/C (compound 0.3 µM): 8.1% [middle of 4 runs]
CC1(O)CCCC1n1c(=O)c(C(F)F)cc2cnc(NC3CCN(S(C)(=O)=O)CC3)nc21 (stereo unspecified)	79.5% [middle of 4 runs]	2.67% [middle of 4 runs]	43% [middle of 4 runs]	26.1% [middle of 4 runs]	22.1% [middle of 4 runs]	87.8 nM [middle of 4 runs]	19.5% [middle of 4 runs]	
CCC(CC)c1cc(NC2CCC(N)C2)n2nccc2n1 (stereo unspecified)	101% [middle of 4 runs]	2.61% [middle of 4 runs]			41.9% [middle of 4 runs]	778 nM [middle of 4 runs]	2.95% [middle of 4 runs]	
CCN1CCN(Cc2ccc(Nc3ncc(F)c(-c4cc(F)c5nc(C)n(C(C)C)c5c4)n3)nc2)CC1			28.7% [middle of 4 runs]	23.5% [middle of 4 runs]	17.6% [middle of 4 runs]			viability, T/C (compound 0.01 µM): 59.8% [middle of 4 runs]
CCc1c2c(nc3ccc(O)cc13)-c1cc3c(c(=O)n1C2)COC(=O)[C@]3(O)CC						2.32 nM [middle of 4 runs]		viability, T/C (compound 0.000949 µM): 82% [middle of 4 runs]; viability, T/C (compound 0.003 µM): 39.4% [middle of 4 runs]; viability, T/C (compound 0.00949 µM): 17.2% [middle of 4 runs]; viability, T/C (compound 0.03 µM): 6.46% [middle of 4 runs]; viability, T/C (compound 0.0949 µM): 3.27% [middle of 4 runs]; viability, T/C (compound 0.3 µM): 2.43% [middle of 4 runs]
CCn1c(-c2cc(N3CCN(C)CC3)cnc2C(C)OC)c2c3cc(ccc31)-c1csc(n1)CC(NC(=O)C1CC1C)C(=O)N1CCCC(N1)C(=O)OCC(C)(C)C2 (stereo unspecified)								viability, T/C (compound 0.000949 µM): 108% [middle of 8 runs]; viability, T/C (compound 0.003 µM): 103% [middle of 8 runs]; viability, T/C (compound 0.03 µM): 105% [middle of 8 runs]; viability, T/C (compound 0.0949 µM): 111% [middle of 8 runs]; IC50 [2]: > 300 nM
CCn1c(-c2cccnc2C(C)OC)c2c3cc(ccc31)N1CCOC(CC(NC(=O)C(C(C)C)N(C)C(=O)C3(F)CCN(C(=O)C#CC(C)(C)N(C)C)CC3)C(=O)N3CCCC(N3)C(=O)OCC(C)(C)C2)C1 (stereo unspecified)								viability, T/C (compound 0.003 µM): 111% [middle of 8 runs]; IC50 [2]: > 300 nM
C[C@@H](NC(=O)c1ncnc(N)c1Cl)c1ncc(C(=O)Nc2cc(C(F)(F)F)c(Cl)cn2)s1		32% [middle of 4 runs]	109% [middle of 4 runs]	91.3% [middle of 4 runs]	64.9% [middle of 4 runs]	2.13 µM [middle of 4 runs]		
Cc1nc(N2CCC3(CC2)COC(C)C3N)c(CO)nc1Sc1ccnc(N)c1Cl (stereo unspecified)	91.6% [middle of 4 runs]	95.3% [middle of 4 runs]	102% [middle of 4 runs]	101% [middle of 4 runs]		> 10000 nM	100% [middle of 4 runs]	
NC1c2ccccc2OC12CCN(c1cnc3c(N4CCCc5ncccc54)n[nH]c3n1)CC2 (stereo unspecified)	102% [middle of 4 runs]	68.6% [middle of 4 runs]				> 10000 nM	98.5% [middle of 4 runs]	
Nc1ccn(C2OC(CO)C(O)C2(F)F)c(=O)n1 (stereo unspecified)	5.62% [middle of 4 runs]		5.46% [middle of 4 runs]	5.2% [middle of 4 runs]	5.11% [middle of 4 runs]	< 3.16 nM		viability, T/C (compound 0.00316 µM): 25.7% [middle of 4 runs]; viability, T/C (compound 0.01 µM): 6.96% [middle of 4 runs]
O=C(c1ccc(F)c(F)c1Nc1ccc(I)cc1F)N1CC(O)([C@@H]2CCCCN2)C1	33% [middle of 4 runs]		12.2% [middle of 4 runs]	7.62% [middle of 4 runs]	6.03% [middle of 4 runs]	< 3.16 nM		viability, T/C (compound 0.00316 µM): 35.9% [middle of 4 runs]; viability, T/C (compound 0.01 µM): 35.3% [middle of 4 runs]
